Read-outs that look alike come from different tables or passages of the source.
Target: T1, human GR (Homo sapiens, UniProt P04150)
T1 sequence (P04150 1-777): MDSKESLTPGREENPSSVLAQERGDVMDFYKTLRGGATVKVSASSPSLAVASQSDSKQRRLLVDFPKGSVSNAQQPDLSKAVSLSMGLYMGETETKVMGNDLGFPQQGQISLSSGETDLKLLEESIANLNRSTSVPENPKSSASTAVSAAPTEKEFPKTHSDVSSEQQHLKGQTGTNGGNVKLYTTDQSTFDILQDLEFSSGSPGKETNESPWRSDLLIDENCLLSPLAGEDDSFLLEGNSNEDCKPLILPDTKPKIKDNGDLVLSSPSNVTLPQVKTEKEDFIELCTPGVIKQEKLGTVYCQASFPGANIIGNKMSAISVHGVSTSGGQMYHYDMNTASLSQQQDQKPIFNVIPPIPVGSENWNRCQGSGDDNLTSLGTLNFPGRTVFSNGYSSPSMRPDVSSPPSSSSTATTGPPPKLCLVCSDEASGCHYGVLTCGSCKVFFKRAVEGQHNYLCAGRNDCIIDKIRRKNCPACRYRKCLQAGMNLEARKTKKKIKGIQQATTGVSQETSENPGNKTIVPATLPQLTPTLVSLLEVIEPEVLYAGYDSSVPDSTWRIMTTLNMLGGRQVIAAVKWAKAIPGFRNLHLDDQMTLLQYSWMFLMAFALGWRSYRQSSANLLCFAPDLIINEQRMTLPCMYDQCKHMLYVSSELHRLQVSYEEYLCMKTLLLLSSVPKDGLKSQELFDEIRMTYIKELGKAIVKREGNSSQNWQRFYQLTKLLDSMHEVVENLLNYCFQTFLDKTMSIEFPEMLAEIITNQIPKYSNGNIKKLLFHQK
Assay: Transrepression Assay (GITAR), TNFα-β-lactamase reporter gene in U937 cells
Format: cell-based
Parameters: U937 cells contain an endogenous glucocorticoid receptor (GR); endogenous in cells; host or cells: U937 cells stably transfected with the TNF-α promoter/β-lactamase reporter only
Summary of the method: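 Reporter readout used CCF2-AM loading for 70–90 min at room temperature after overnight (~18 h, 37 °C) PMA (5 ng/ml final) and LPS (100 ng/ml final) stimulation of compound-treated (30–45 min) TNFα-β-lactamase U937 cells expressing native GR. Activity was normalised to 100 nM dexamethasone repression.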

[1] = U-937, 100 nM dexamethasone = 100% activity, read-out: maximal activity in the transrepression assay

SMILES | Emax [1] [%] | Emax (U-937, read-out: maximal activity in the transrepression assay) [%]
C[C@]12Cc3cnn(-c4ccc(F)cc4)c3C=C1CC[C@@]2(O)CCc1cc(C(F)(F)F)ccc1C(N)=O [Example 173, 2-{2-[(4α6,5R)-1-(4-fluorophenyl)-5-hydroxy-4α-methyl-1,4,4α,5,6,7-hexahydrocyclopenta[f]indazol-5-yl]ethyl}-4-(trifluoromethyl)benzamide] | 5 to 100 | 
C[C@]12Cc3cnn(-c4ccc(F)cc4)c3C=C1CC[C@@]2(O)CCc1ccc(C(F)(F)F)cc1C(N)=O [Example 175, 2-{2-[(4αS,5R)-1-(4-fluorophenyl)-5-hydroxy-4α-methyl-1,4,4α,5,6,7-hexahydrocyclopenta[f]indazol-5-yl]ethyl}-5-(trifluoromethyl)benzamide] | 5 to 100 | 
C[C@]12Cc3cnn(-c4ccc(F)c(F)c4)c3C=C1CC[C@@]2(O)CCc1cccc(Cl)c1C(N)=O [Example 176, 2-chloro-6-{2-[(4αS,5R)-1-(3,4-difluorophenyl)-5-hydroxy-4α-methyl-1,4,4α,5,6,7-hexahydrocyclopenta[f]indazol-5-yl]ethyl}benzamide] | 5 to 100 | 
C[C@]12Cc3cnn(-c4ccc(F)c(F)c4)c3C=C1CC[C@@]2(O)CCc1cc(Cl)ccc1C(N)=O [Example 177, 4-chloro-2-{2-[(4αS,5R)-1-(3,4-difluorophenyl)-5-hydroxy-4α-methyl-1,4,4α,5,6,7-hexahydrocyclopenta[f]indazol-5-yl]ethyl}benzamide] | 5 to 100 | 
C[C@]12Cc3cnn(-c4ccc(F)cc4)c3C=C1CC[C@@]2(O)CCc1cc(F)c(F)cc1C(N)=O [Example 178, 4,5-difluoro-2-{2-[(4αS,5R)-1-(4-fluorophenyl)-5-hydroxy-4α-methyl-1,4,4α,5,6,7-hexahydrocyclopenta[f]indazol-5-yl]ethyl}benzamide] | 5 to 100 | 
CO[C@@]1(CCc2ccc(C(F)(F)F)cc2C(N)=O)CCC2=Cc3c(cnn3-c3ccc(F)cc3)C[C@@]21C [Example 179, 2-{2-[(4αS,5R)-1-(4-fluorophenyl)-5-methoxy-4α-methyl-1,4,4α,5,6,7-hexahydrocyclopenta[f]indazol-5-yl]ethyl}-5-(trifluoromethyl)benzamide] | 5 to 100 | 
C[C@]12Cc3cnn(-c4ccc(F)cc4)c3C=C1CC[C@@]2(O)CCc1ccc(C#N)cc1C(N)=O [Example 180, 5-cyano-2-{2-[(4αS,5R)-1-(4-fluorophenyl)-5-hydroxy-4α-methyl-1,4,4α,5,6,7-hexahydrocyclopenta[f]indazol-5-yl]ethyl}benzamide] | 5 to 100 | 
C[C@]12Cc3cnn(-c4ccc(F)cc4)c3C=C1CC[C@@]2(O)CCc1ccccc1C(O)(C(N)=O)C1CC1 (stereo partly drawn) [Example 200, 2-cyclopropyl-2-(2-{2-[(4αS,5R)-1-(4-fluorophenyl)-5-hydroxy-4α-methyl-1,4,4α,5,6,7-hexahydrocyclopenta[f]indazol-5-yl]ethyl}phenyl)-2-hydroxyacetamide] |  | 5 to 100

Further lines, with some results ahead:

Emax [1] [%] | SMILES | Emax (U-937, read-out: maximal activity in the transrepression assay) [%]
5 to 100 | Cc1ccc(CC[C@]2(O)CCC3=Cc4c(cnn4-c4ccc(F)cc4)C[C@@]32C)c(C(N)=O)c1 [Example 181, 2-{2-[(4αS,5R)-1-(4-fluorophenyl)-5-hydroxy-4α-methyl-1,4,4α,5,6,7-hexahydrocyclopenta[f]indazol-5-yl]ethyl}-5-methylbenzamide] | 
5 to 100 | Cc1cccc(CC[C@]2(O)CCC3=Cc4c(cnn4-c4ccc(F)cc4)C[C@@]32C)c1C(N)=O [Example 182, 2-{2-[(4αS,5R)-1-(4-fluorophenyl)-5-hydroxy-4α-methyl-1,4,4α,5,6,7-hexahydrocyclopenta[f]indazol-5-yl]ethyl}-6-methylbenzamide] | 
5 to 100 | C[C@]12Cc3cnn(-c4ccc(F)cc4)c3C=C1CC[C@@]2(O)CCc1ccc(F)c(F)c1C(N)=O [Example 183, 2,3-difluoro-6-{2-[(4αS,5R)-1-(4-fluorophenyl)-5-hydroxy-4α-methyl-1,4,4α,5,6,7-hexahydrocyclopenta[f]indazol-5-yl]ethyl}benzamide] | 
5 to 100 | C[C@]12Cc3cnn(-c4ccc(Cl)cc4)c3C=C1CC[C@@]2(O)CCc1ccccc1C(N)=O [Example 184, 2-{2-[(4αS,5R)-1-(4-chlorophenyl)-5-hydroxy-4α-methyl-1,4,4α,5,6,7-hexahydrocyclopenta[f]indazol-5-yl]ethyl}benzamide] | 
5 to 100 | Cc1cccc(CC[C@]2(O)CCC3=Cc4c(cnn4-c4ccc(F)c(F)c4)C[C@@]32C)c1C(N)=O [Example 186, 2-{2-[(4αS,5R)-1-(3,4-difluorophenyl)-5-hydroxy-4α-methyl-1,4,4α,5,6,7-hexahydrocyclopenta[f]indazol-5-yl]ethyl}-6-methylbenzamide] | 
5 to 100 | C[C@]12Cc3cnn(-c4cccc(F)c4)c3C=C1CC[C@@]2(O)CCc1ccccc1C(N)=O [Example 187, 2-{2-[(4αS,5R)-1-(3-fluorophenyl)-5-hydroxy-4α-methyl-1,4,4α,5,6,7-hexahydrocyclopenta[f]indazol-5-yl]ethyl}benzamide] | 
5 to 100 | C[C@]12Cc3cnn(-c4ccc(F)cc4)c3C=C1CC[C@@]2(O)CCc1cccc(C(F)(F)F)c1C(N)=O [Example 188, 2-{2-[(4αS,5R)-1-(4-fluorophenyl)-5-hydroxy-4α-methyl-1,4,4α,5,6,7-hexahydrocyclopenta[f]indazol-5-yl]ethyl}-6-(trifluoromethyl)benzamide] | 
5 to 100 | C[C@]12Cc3cnn(-c4ccc(F)cc4)c3C=C1CC[C@@]2(O)CCc1ccc(-c2ccccc2)cc1C(N)=O [Example 190, 4-{2-[(4αS,5R)-1-(4-fluorophenyl)-5-hydroxy-4α-methyl-1,4,4α,5,6,7-hexahydrocyclopenta[f]indazol-5-yl]ethyl}biphenyl-3-carboxamide] | 
5 to 100 | C[C@]12Cc3cnn(-c4ccc(F)cc4)c3C=C1CC[C@@]2(O)CCc1ccccc1C(O)C(N)=O (stereo partly drawn) [Example 192, 2-(2-{2-[(4αS,5R)-1-(4-fluorophenyl)-5-hydroxy-4α-methyl-1,4,4α,5,6,7-hexahydrocyclopenta[f]indazol-5-yl]ethyl}phenyl)-2-hydroxyacetamide] | 
5 to 100 | C[C@]12Cc3cnn(-c4ccc(F)cc4)c3C=C1CC[C@@]2(O)CCc1cc(F)ccc1CC(N)=O [Example 193, 2-(4-fluoro-2-{2-[(4αS,5R)-1-(4-fluorophenyl)-5-hydroxy-4α-methyl-1,4,4α,5,6,7-hexahydrocyclopenta[f]indazol-5-yl]ethyl}phenyl)acetamide] | 
5 to 100 | C[C@]12Cc3cnn(-c4ccc(F)c(F)c4)c3C=C1CC[C@@]2(O)CCc1ccccc1CC(N)=O [Example 195, 2-(2-{2-[(4αS,5R)-1-(3,4-difluorophenyl)-5-hydroxy-4α-methyl-1,4,4α,5,6,7-hexahydrocyclopenta[f]indazol-5-yl]ethyl}phenyl)acetamide] | 

Reference: US8119681B2, “2-[1-phenyl-5-hydroxy or methoxy-4alpha-methyl-hexahydrocyclopenta [ƒ]indazole-5-YL]ethyl phenyl derivatives as glucocorticoid receptor ligands” (Merck Sharp & Dohme Corp., priority 2006, dated 2012)
